Measured values reported in patent EP2213288A1 (Welte, Karl, priority 2009, dated 2010).

Tests used:
[1] = system: promyelocytic leukemia cell line HL-60; experiment: Myeloid differentiation of HL-60 cells
Description: Granulocytic differentiation was characterized by FACS analysis of cells stained with antibody specific to CD16 (Immunotools), CD15 (BD Pharmigen) or CD11b (BD Pharmigen) and by morphological assessment of Wright-Giemsa-stained cytospin slides. […] We cultured HL-60 cells in the presence of 10 ng ml^-1 human rhG-CSF(Cell systems Biotechnoogy), 10 ng ml^-1 human rhNAMPT (Phoenix Pharmaceuticals) or 0.1µM ATRA (Sigma). For the measurement of NAD^+, 0.5 M ice-cold HClO4 was added to the cells, or cell culture supernatants or plasma; after 2 min, 100µl of supernatants was collected by centrifugation at 3,000g for 5 min, was 20µl K2HPO4 (1 M) added with cooling on ice and adjusted pH to 7.2-7.4 with KOH. 50µl of supernatant was given to the reaction mixture containing 0.1 M sodiumpyrophosphate-semicarbazid (Sigma) (pH 8.8), absolute ethanol and dH2O, NAD^+ spectrophotometrically was assessed at 339 nm at room temperature (25°C) as as mean difference in absorbance before (A1) and 6 min after (A2) addition of alcohol dehydrogenase (Roche).

CD34^+ cells = experiment: NAMPT inhibition (FK866) or G-CSFR knock-down in G-CSF- or NAMPT-stimulated CD34+ cells
Excerpt: NAMPT is induced by G-CSF, so it was further analyzed whether this enzyme is required for G-CSF-triggered granulopoiesis.
DNA oligonucleotides corresponding to position 642 bp to 660 bp of the human CSF3R gene sequence were chemically synthesized. These nucleotides also contained overhang sequences from a 5' BglII- and a 3'HindIII- restriction sites. The numbering of the first nucleotide of the shRNAs refers to the ATG start codon. The oligonucleotide sequences was as follows […] (Seq. ID No. 3). The oligonucleotides were inserted into the BglII/HindIII-digested pSUPER-derived plasmid to generate pSUPER-CSF3R_642 and verified the isolated clone by DNA sequencing. To generate lentiviral transgenic plasmids containing shRNA expression cassettes located in the U3 region of the […]3'-LTR pRRL,PPT.SF.DsRedEx.pre was used. pRRL.PPT.SF.DsRedEx.pre is a derivative of the standard lentiviral vector pRRL.PPT.PGK, DsRedEx.pre (kindly provided by Luigi Naldini, Milano, Italy) using an internal SFFV promoter. To generate the lentiviral CSF3R_642-SR plasmid, the pSUPER-CSF3R_642 was digested with SmaI and HincII and ligated the resulting DNA fragments (360 bp) into the SnaBI site of the pRRL.PPT.SF.DsRedEx,pre. The lentiviral plasmid encodes RFPEXPRESS as reporter gene.

[2] = Treatment of healthy individuals with vitamin B3, blood cell analysis; assay type: in vivo, human
[3] = system: CD34^+ bone marrow progenitor cells from healthy individuals; experiment: Granulocytic/myeloid differentiation of cultured CD34+ cells from healthy individuals (FACS, qRT-PCR, ELISA, NAD+ measurement); assay type: cell-based, human; conditions: FACS analysis; nicotinamide 1 mM or 10 mM; lentiviral transduction MOI 1-2
Description: Bone marrow and peripheral blood mononuclear cells were isolated by Ficoll-Hypaque gradient centrifugation (Amersham Biosciences) and positively selected bone marrow CD34^+ and CD33^+ cells by sequential immunomagnetic labeling with corresponding magnetic cell-sorting beads (Miltenyi Biotech). Peripheral blood PMNs were isolated by Ficoll-Hypaque gradient centrifugation and by subsequent hypotonic lysis of erythrocytes in cell pellet, Cells were counted and viability was assessed by trypan blue dye exclusion. The purity of sorted CD34^+ cells, CD33^+ cells and PMNs was more than 96% as assessed by FACS analysis and by staining with May-Grünwald-Giemsa.
Purified PMNs and CD33^+ cells were cultured in RPMI-1640 medium supplemented with 1% heat-inactivated autologous human serum with or without addition of 10 ng ml^-1 of recombinant human G-CSF (rhG-CSF) (Cell Systems Biotechnology). […] For assessment of G-CSFR protein expression cells were stained with unconjugated antibody to mouse G-CSFR and secondary FITC-conjugated antibody and measured G-CSFR expression by FACS. […] G-CSF protein was measured by G-CSF-specific ELISA from R&D Systems and NAMPT protein by NAMPT specific carboxy-terminal enzyme immunometric assay (Phoenix Pharmaceuticals).

[4] = 25-50 mg kg^-1 d^-1, subjects with type 1 diabetes; cited from earlier work

With `CC1=C(/C=C/C(C)=C/C=C/C(C)=C/C(=O)O)C(C)(C)CCC1` [ATRA, all-trans-retinoid acid] the “myeloid (granulocytic) differentiation of HL-60 cells” value ([1]; 10 ng ml^-1 rhG-CSF, 10 ng ml^-1 rhNAMPT or 0.1µM ATRA, or lentiviral transduction) was “differentiates into granulocytes” and the “levels of iNAD^+ as well as mRNAs of SIRT1, C/EBPα and C/EBPβ” value ([1]; compared with untreated controls) was “Elevated levels”.

In the case of `O=C(/C=C/c1cccnc1)NCCCCC1CCN(C(=O)c2ccccc2)CC1` [FK866], the “cell viability and proliferation” value (CD34^+ cells; 1 nM FK866) is reported as “no effect”, the “G-CSF induction of C/EBPα or C/EBPβ mRNA expression and G-CSFR mRNA or protein expression” value (CD34^+ cells; NAMPT activity inhibited with FK866) is reported as “unable to induce” and the “G-CSF or iNAD^+ levels in G-CSF- or NAMPT-stimulated cells” value (CD34^+ cells; cells pretreated with FK866) is reported as “no increase”. For the same compound, the G-CSF-triggered granulocytic differentiation (CD34^+ cells; pretreatment with 1 nM FK866, then G-CSF) was “substantially abrogated”.

For `NC(=O)c1cccnc1` [vitamin B3, nicotinamide], the “increase in the neutrophilic granulocyte content” value ([2]; 10-20 mg kg^-1 d^-1, within 2 d) was “up to twofold”, the “iNAD^+ levels in PMNs” value ([2]; compared with steady-state levels) was “Increased” and the “C/EBPα and C/EBPβ mRNA levels in bone marrow CD34^+ cells, CD33^+ cells and in peripheral blood PMNs” value ([2]; healthy individuals) was “upregulation”. The “CD34^+ hematopoietic progenitor cells in peripheral blood” value ([2]; healthy individuals) was “mobilisation”, the “Other blood cell lineages” value ([2]; healthy individuals) was “unaffected” and the “decline of neutrophil numbers to the physiological level after discontinuation” value ([2]; healthy individuals) was 2-3 d. The “time after initiation of treatment at which increased neutrophil numbers were detected” value ([2]; healthy individuals) was 1 to 2 days, the “numbers of neutrophilic granulocytes” value ([2]; six healthy individuals, 10 mg per kg per d for 1 week) was “significant increases” and the adverse effects ([2]; treated healthy individuals) was “no adverse effects”. The “myeloid differentiation of CD34^+ cells” value [3] was “induced myeloid differentiation of CD34^+ cells in a dose-dependent manner” and the side effects [4] was “no side effects”.
